{
  "source": "patent US10813920B2",
  "about": "“Drug for treating corneal endothelium by promoting cell proliferation or inhibiting cell damage” (THE DOSHISHA, priority 2013, dated 2020)",
  "key": {"p38 MAP kinase signal": {"system": "p38 MAP kinase signal", "assay": "Western blotting of phosphorylated ATF2, downstream molecule of p38 MAP kinase signal", "type": "cell-based, human", "conditions": "Western blotting after 20 days from stimulation; 10 μM and 30 μM", "description": "*Human corneal endothelial cells (HCEC, where the cells were obtained and culturing method thereof): HCEC was cultured as follows. In short, Descemet's membrane including corneal endothelial cells was peeled off from a corneal for research purchased from the Seattle Eye Bank, and the corneal endothelial cells were mechanically peeled off with a basal membrane. […] Specifically, after digestion at 37° C., HCEC obtained from individual corneas was resuspended in a culture medium and plated on a well of a 12-well plate coated with FNC Coating Mix®. The culture medium was prepared in accordance with a partially-modified disclosed protocol. In short, a basal cultural medium containing OptiMEM-I (Life Technologies), 8% FBS, 5 ng/mL of epithelial growth factor (EGF) (Sigma-Aldrich Co., St. Louis, Mo.), 20 μg/mL of ascorbic acid (Sigma-Aldrich), 200 mg/L calcium chloride (Sigma-Aldrich), 0.08% chondroitin sulfate (Wako Pure Chemical Industries, Osaka) and 50 μg/mL of gentamicin was prepared and an acclimated medium was collected after inactivated 3T3 fibroblasts were cultured. The 3T3 fibroblasts were inactivated as previously described. […] Immunostaining was applied to the cells for observation with a fluorescence microscope. […]"}, "[1]": {"system": "human corneal endothelial cells", "assay": "Cytokine antibody array (Proteome Profiler) of corneal endothelial culture supernatant", "type": "cell-based", "conditions": "10 μM, semi quantitative", "description": "Corneal endothelial cells were cultured in the presence of 10 μM SB203580, and culture supernatant was collected as a sample solution. Cytokines in the culture supernatant were comprehensively measured semi quantitatively with a Proteome Profiler (# ARY005, R&D). A membrane blotted with cytokine antibodies was placed in a tray. 2 ml of blocking solution was added and the membrane was incubated for 1 hour at room temperature. Biotin antibodies were added to the sample solution and incubated for 1 hour at room temperature. The blocking solution was discarded. The membrane was immersed in an antibody solution and incubated overnight at 4° C. After washing the membrane, 2 ml of HRP labeling streptavidin solution diluted with a blocking solution was added and the membrane was incubated at room temperature for 30 minutes. After washing the membrane, a substrate solution was added for detection with LAS400 (Fuji Film).\nBased on the aforementioned experimental methodology, a cytokine antibody array (Proteome Profiler, # ARY005, R&D Systems) blotted with 36 types of antibodies was used to find the expression pattern of cytokines in a human corneal endothelial culture solution."}, "[2]": {"system": "human corneal endothelial cells", "assay": "Decrease in cell density of cultured human corneal endothelial cells (phase difference microscope)", "type": "cell-based", "conditions": "1, 3, 10 μM; after 20 days; vs control", "from_the_text": "For corneal endothelial cells, cell density decreases about 0.5% annually with age in a living organism. Further, the cell density also decreases due to various corneal endothelial diseases. Cell culture causes hypertrophy of cells and cellular as in a living organism and cellular senescence like reduction as in a living organism, which is a decrease in cell density. In this regard, the effect of p38 MAP kinase signal inhibition was studied on cellular senescence like reduction, which is a decrease in corneal endothelial cell density. […] Decrease in cell density due to culturing was inhibited and the cell density increased in an SB203580 concentration-dependent manner (bottom panel: vertical axis indicates cell density (mm^2) and the horizontal axis indicates, from the left, control, SB203580 1 μM, 3 μM, and 10 μM. ** indicates statistical significance (p<0.05) with respect to the control).\nCellular senescence-like decrease similar to a living organism, such as hypertrophy and decrease in density of cells, occurs from cell culture. In this regard, the effect of p38 MAP kinase signal inhibition on cellular senescence-like decrease such as decrease in corneal endothelial cell density was studied. […]"}},
  "data": [
    {"smiles": "C[S+]([O-])c1ccc(-c2nc(-c3ccncc3)c(-c3ccc(F)cc3)[nH]2)cc1", "note": "(stereo not drawn) [SB203580, 4-(4-fluorophenyl)-2-(4-methylsulfinylphenyl)-5-(4-pyridyl)-1H-imidazole]", "values": [
      {"measurement": "phosphorylation of ATF2", "setting": "p38 MAP kinase signal", "result": "suppressed"},
      {"measurement": "Cytokines other than serpinE1 (GROa, sICAM-1, IL-6, IL-8, IL-23, MCP-1, MIF) in culture supernatant", "setting": "[1]", "result": "decreased relative to vehicle"},
      {"measurement": "Decrease in cell density due to culture", "setting": "[2]", "result": "inhibited in a SB203580 concentration dependent manner"}
    ]}
  ]
}
